The source of these data is patent publication US20070010671A1, “Novel quinazoline derivatives and methods of treatment related to the use thereof” (priority 2003, published 2007).

This experiment addresses MCH receptor (Homo sapiens, UniProt Q99705). The experiment can be described thus: High throughput functional screening FLIPR/FDSS6000: inhibition of MCH-evoked intracellular Ca2+ changes. It counts as cell-based. The conditions noted are these: class by percent of control at 10^-7 M or IC50. The procedure, abridged:
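Cells expressing a non-endogenous, constitutively active MCH receptor were loaded with 4 μM Fluo4-AM (with probenecid) for 1 hr at 37° C. Test compound was preincubated 3 min at 37° C before 50 nM MCH was added. The [Ca2+]i transient was read at Ex 488/Em 530 nm for 290 s.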

Consider `CN(C)c1nc(N[C@H]2CC[C@@H](CNC(=S)Nc3cccc(F)c3)CC2)nc2ccccc12` [compound 650], for which the class is 3 (Class 3: The value of percent of control at 10^−7 M was more than 60% or the value of IC50 was more than 200 nM.).

As for `CN(C)c1nc(N[C@H]2CC[C@@H](CNC(=S)Nc3cccc(I)c3)CC2)nc2ccccc12` [compound 651], the class is on record as 3 (Class 3: The value of percent of control at 10^−7 M was more than 60% or the value of IC50 was more than 200 nM.).

Regarding `COc1cccc(NC(=S)NC[C@H]2CC[C@@H](Nc3nc(N(C)C)c4ccccc4n3)CC2)c1` [compound 652], the class is given as 3 (Class 3: The value of percent of control at 10^−7 M was more than 60% or the value of IC50 was more than 200 nM.).

As to `CN(C)c1nc(N[C@H]2CC[C@@H](CNC(=S)Nc3ccc(OC(F)F)cc3)CC2)nc2ccccc12` [compound 653], the class is given as 3 (Class 3: The value of percent of control at 10^−7 M was more than 60% or the value of IC50 was more than 200 nM.).

On to `CN(C)c1nc(N[C@H]2CC[C@@H](CNC(=S)Nc3ccc(OC(F)(F)F)cc3)CC2)nc2ccccc12` [compound 654], for which the class was 3 (Class 3: The value of percent of control at 10^−7 M was more than 60% or the value of IC50 was more than 200 nM.).

For the compound `CN(C)c1nc(N[C@H]2CC[C@@H](CNC(=S)Nc3ccc(C(F)(F)F)cc3)CC2)nc2ccccc12` [compound 655], the class is 3 (Class 3: The value of percent of control at 10^−7 M was more than 60% or the value of IC50 was more than 200 nM.).

`CN(C)c1nc(N[C@H]2CC[C@@H](CNC(=S)Nc3ccc(SC(F)(F)F)cc3)CC2)nc2ccccc12` [compound 656]: the class is recorded as 3 (Class 3: The value of percent of control at 10^−7 M was more than 60% or the value of IC50 was more than 200 nM.).

For `CN(C)c1nc(N[C@H]2CC[C@@H](CNC(=S)Nc3ccc(Br)cc3Cl)CC2)nc2ccccc12` [compound 657], the class was 3 (Class 3: The value of percent of control at 10^−7 M was more than 60% or the value of IC50 was more than 200 nM.).

With `CN(C)c1nc(N[C@H]2CC[C@@H](CNC(=S)Nc3ccc(Br)cc3F)CC2)nc2ccccc12` [compound 658], the class is reported as 3 (Class 3: The value of percent of control at 10^−7 M was more than 60% or the value of IC50 was more than 200 nM.).

Consider `CN(C)c1nc(N[C@H]2CC[C@@H](CNC(=S)Nc3ccc(Cl)c(C(F)(F)F)c3)CC2)nc2ccccc12` [compound 659], for which the class is 3 (Class 3: The value of percent of control at 10^−7 M was more than 60% or the value of IC50 was more than 200 nM.).

On to `CN(C)c1nc(N[C@H]2CC[C@@H](CNC(=S)Nc3ccc(F)c(C(F)(F)F)c3)CC2)nc2ccccc12` [compound 660], for which the class is given as 3 (Class 3: The value of percent of control at 10^−7 M was more than 60% or the value of IC50 was more than 200 nM.).

Take `CN(C)c1nc(N[C@H]2CC[C@@H](CNC(=S)Nc3ccc(I)cc3)CC2)nc2ccccc12` [compound 661]: the class is recorded as 3 (Class 3: The value of percent of control at 10^−7 M was more than 60% or the value of IC50 was more than 200 nM.).

Turning to `Cc1ccc(Cl)cc1NC(=S)NC[C@H]1CC[C@@H](Nc2nc(N(C)C)c3ccccc3n2)CC1` [compound 662], the class is reported as 2 (Class 2: The value of percent of control at 10^−7 M was from 40% to 60% or the value of IC50 was from 50 nM to 200 nM.).

For `CN(C)c1nc(N[C@H]2CC[C@@H](CNC(=S)NC3C[C@@H]4CC[C@H]3C4)CC2)nc2ccccc12` (stereo partly drawn) [compound 663, N-[(1S,4R)-bicyclo[2.2.1]hept-2-yl]-N′-[(cis-4-{[4-(dimethylamino)quinazolin-2-yl]amino}cyclohexyl)methyl]thiourea], the class is 2 (Class 2: The value of percent of control at 10^−7 M was from 40% to 60% or the value of IC50 was from 50 nM to 200 nM.).

In the case of `CN(C)c1nc(N[C@H]2CC[C@@H](CNC(=S)Nc3ccc(NC(=O)OC(C)(C)C)cc3)CC2)nc2ccccc12` [compound 664], the class is reported as 3 (Class 3: The value of percent of control at 10^−7 M was more than 60% or the value of IC50 was more than 200 nM.).
